Measurements from patent US20040033901A1, “Uses for cellulose-containing aggregates” (priority 1994, published 2004).

Test system: termites
Experiment: field test of termite attack on a weighted board on a one inch bed of aggregates
Format: in vivo
Settings: one inch thick bed on ground surface in termite-infested area, after one year
Description: In a field test, a one inch thick bed of aggregates containing either 0.1% Deltamethrin, 0.001% Deltamethrin, or no Deltamethrin were positioned on ground surface in an area known to be infested with termites and a weighted board was positioned on the top of the bed. […] Thus, at least for Deltamethrin, a toxin level of 0.001 wt % appears both effective and long lived.

## CC1(C)[C@H](C(=O)O[C@H](C#N)c2cccc(Oc3ccccc3)c2)[C@@H]1C=C(Br)Br [Deltamethrin]
Aggregates containing 0.001% Deltamethrin
  protection of board from termite attack: totally protected
Aggregates containing 0.1% Deltamethrin
  protection of board from termite attack: totally protected
